The record followed here is US7160893B2, “Pyrimidine-2,4-dione derivatives as matrix metalloproteinase inhibitors” (Warner-Lambert Company, priority 2002, dated 2007).

Each structure is given as a SMILES string. Where only a bound is given, the exact number is not on record here.

For one experiment, the target named is MMP-13 catalytic domain (Homo sapiens, UniProt P45452). The experiment in a line: Inhibition of MMP-13 catalytic domain (thiopeptolide substrate hydrolysis assay). The experiment is classed as biochemical. The conditions noted are these: compounds of Example 33, Biological Table 1; read-out: MMP-13CD IC50. An excerpt:
The assays measure the amount by which a test compound reduces the hydrolysis of a thiopeptolide substrate catalyzed by a matrix metalloproteinase enzyme. Such assays are described in detail by Ye et al., in Biochemistry, 1992;31(45):11231–11235, which is incorporated herein by reference. One such assay is described below in Biological Method 1.
Thiopeptolide substrates show virtually no decomposition or hydrolysis at or below neutral pH in the absence of a matrix metalloproteinase enzyme. A typical thiopeptolide substrate commonly utilized for assays is Ac-Pro-Leu-Gly-thioester-Leu-Leu-Gly-OEt. A 100 μL assay mixture will contain 50 mM of N-2-hydroxyethylpiperazine-N′-2-ethanesulfonic acid buffer (“HEPES,” pH 7.0), 10 mM CaCl2, 100 μM thiopeptolide substrate, and 1 mM 5,5′-dithio-bis-(2-nitro-benzoic acid) (DTNB). The thiopeptolide substrate concentration may be varied, for example from 10 to 800 μM to obtain Km and Kcat values. The change in absorbance at 405 nm is monitored on a Thermo Max microplate reader (molecular Devices, Menlo Park, Calif.) at room temperature (22° C.). The calculation of the amount of hydrolysis of the thiopeptolide substrate is based on E412=13600 M^−1 cm^−1 for the DTNB-derived product 3-carboxy-4-nitrothiophenoxide. Assays are carried out with and without matrix metalloproteinase inhibitor compounds, and the amount of hydrolysis is compared for a determination of inhibitory activity of the test compounds.
Test compounds were evaluated at various concentrations in order to determine their respective IC50 values, the micromolar concentration of compound required to cause a 50% inhibition of catalytic activity of the respective enzyme.
Some representative compounds of Formula I have been evaluated for their ability to inhibit MMP-13. Inhibitor activity versus other MMPs with the compounds may be determined using, for example, MMP-1FL, which refers to full length interstitial collagenase; MMP-2FL, which refers to full length Gelatinase A; MMP-3CD, which refers to the catalytic domain of stromelysin; MMP-7FL, which refers to full length matrilysin; MMP-9FL, which refers to full length Gelatinase B; MMP-13CD, which refers to the catalytic domain of collagenase 3; and MMP-14CD, which refers to the catalytic domain of MMP-14. Test compounds can be evaluated at various concentrations in order to determine their respective IC50 values, the micromolar concentration of compound required to cause a 50% inhibition of the hydrolytic activity of the respective enzyme.
Consider `Cc1c(SCCOc2ccc(F)cc2)n(C)c(=O)n(Cc2ccccc2)c1=O` [Example 33a, 3-Benzyl-6-[2-(4-fluoro-phenoxy)-ethylsulfanyl]-1,5-dimethyl-1H-pyrimidine-2,4-dione], for which the IC50 is over 100 µM.
Still for that read-out and setting: under `Cc1c(SCc2ccc3nc(C(F)(F)F)cc(Cl)c3c2)n(C)c(=O)n(Cc2ccccc2)c1=O` [Example 33b, 3-Benzyl-6-(4-chloro-2-trifluoromethyl-quinolin-6-ylmethylsulfanyl)-1,5-dimethyl-1H-pyrimidine-2,4-dione] stands over 100 µM; under `Cc1c(SCCCc2ccccc2)n(C)c(=O)n(Cc2ccccc2)c1=O` [Example 33c, 3-Benzyl-1,5-dimethyl-6-(3-phenyl-propylsulfanyl)-1H-pyrimidine-2,4-dione], over 100 µM; under `Cc1c(SCCC(=O)c2ccc(F)cc2)n(C)c(=O)n(Cc2ccccc2)c1=O` [Example 33d, 3-Benzyl-6-[3-(4-fluoro-phenyl)-3-oxo-propylsulfanyl]-1,5-dimethyl-1H-pyrimidine-2,4-dione], over 100 µM.
As for `Cc1c(SCc2ccc3ccccc3c2)n(C)c(=O)n(Cc2ccccc2)c1=O` [Example 33e, 3-Benzyl-1,5-dimethyl-6-(naphthalen-2-ylmethylsulfanyl)-1H-pyrimidine-2,4-dione], the concentration for half-maximal inhibition (IC50) was over 100 µM.
On the same count and under the same terms, under `Cc1c(SCC(=O)c2ccc(-c3ccccc3)cc2)n(C)c(=O)n(Cc2ccccc2)c1=O` [Example 33f, 3-Benzyl-6-(2-biphenyl-4-yl-2-oxo-ethylsulfanyl)-1,5-dimethyl-1H-pyrimidine-2,4-dione] stands over 100 µM; under `Cc1c(SCc2ccccc2-c2ccccc2)n(C)c(=O)n(Cc2ccccc2)c1=O` [Example 33g, 3-Benzyl-6-(biphenyl-2-ylmethylsulfanyl)-1,5-dimethyl-1 H-pyrimidine-2,4-dione], over 100 µM; under `COc1ccc(C(=O)CSc2c(C)c(=O)n(Cc3ccccc3)c(=O)n2C)cc1` [Example 33h, 3-Benzyl-6-[2-(4-methoxy-phenyl)-2-oxo-ethylsulfanyl]-1,5-dimethyl-1H-pyrimidine-2,4-dione], over 100 µM.
Same read-out and setting: the figure for `Cc1c(SCc2ccc3nc(C(F)(F)F)cc(Cl)c3c2)[nH]c(=O)n(Cc2ccccc2)c1=O` [Example 33i, 3-Benzyl-6-(4-chloro-2-trifluoromethyl-quinolin-6-ylmethylsulfanyl)-5-methyl-1H-pyrimidine-2,4-dione] is over 100 µM; for `Cc1onc(-c2ccccc2)c1C(=O)CSc1[nH]c(=O)n(Cc2ccccc2)c(=O)c1C` [Example 33j, 3-Benzyl-5-methyl-6-[2-(5-methyl-3-phenyl-isoxazol-4-yl)-2-oxo-ethylsulfanyl]-1H-pyrimidine-2,4-dione] it is 23 µM.
As to `COc1ccc2nc(CSc3[nH]c(=O)n(Cc4ccccc4)c(=O)c3C)c(=O)oc2c1` [Example 33k, 3-Benzyl-6-(7-methoxy-2-oxo-2H-1,4-benzoxazin-3-ylmethylsulfanyl)-5-methyl-1H-pyrimidine-2,4-dione], the half-inhibitory concentration (IC50) was over 30 µM.
The same measure, in the same setting: the figure for `Cc1c(SCC(=O)c2cc(-c3ccccc3)no2)[nH]c(=O)n(Cc2ccccc2)c1=O` [Example 33l, 3-Benzyl-5-methyl-6-[2-oxo-2-(3-phenyl-isoxazol-5-yl)-ethylsulfanyl]-1H-pyrimidine-2,4-dione] is over 30 µM; for `Cc1c(SCCCc2ccccc2)[nH]c(=O)n(Cc2ccccc2)c1=O` [Example 33m, 3-Benzyl-5-methyl-6-(3-phenyl-propylsulfanyl)-1H-pyrimidine-2,4-dione] it is over 100 µM; for `Cc1c(SCCC(=O)c2ccc(F)cc2)[nH]c(=O)n(Cc2ccccc2)c1=O` [Example 33n, 3-Benzyl-6-[3-(4-fluoro-phenyl)-3-oxo-propylsulfanyl]-5-methyl-1H-pyrimidine-2,4-dione] it is over 30 µM.
Regarding `Cc1c(SCc2ccc3ccccc3c2)[nH]c(=O)n(Cc2ccccc2)c1=O` [Example 33o, 3-Benzyl-5-methyl-6-(naphthalen-2-ylmethylsulfanyl)-1H-pyrimidine-2,4-dione], the IC50 is over 100 µM.
Turning to `Cc1c(SCC(=O)c2ccc(-c3ccccc3)cc2)[nH]c(=O)n(Cc2ccccc2)c1=O` [Example 33p, 3-Benzyl-6-(2-biphenyl-4-yl-2-oxo-ethylsulfanyl)-5-methyl-1H-pyrimidine-2,4-dione], the IC50 is over 30 µM.
For the compound `Cc1c(SCc2nc3ccccc3[nH]2)[nH]c(=O)n(Cc2ccccc2)c1=O` [Example 33q, 6-(1H-Benzimidazol-2-ylmethylsulfanyl)-3-benzyl-5-methyl-1H-pyrimidine-2,4-dione], the half-maximal inhibitory concentration (IC50) was over 100 µM.
Same read-out and setting: under `Cc1c(SCCCC(=O)c2ccc(Br)cc2)[nH]c(=O)n(Cc2ccccc2)c1=O` [Example 33r, 3-Benzyl-6-[4-(4-bromo-phenyl)-4-oxo-butylsulfanyl]-5-methyl-1H-pyrimidine-2,4-dione] stands over 100 µM.
Same read-out and setting: under `Cc1c(SCCCCOc2ccccc2)[nH]c(=O)n(Cc2ccccc2)c1=O` [Example 33s, 3-Benzyl-5-methyl-6-(4-phenoxy-butylsulfanyl)-1H-pyrimidine-2,4-dione] stands over 100 µM.
As for `Cc1c(SCC(=O)c2cc(-c3ccc(Cl)cc3Cl)no2)[nH]c(=O)n(Cc2ccccc2)c1=O` [Example 33t, 3-Benzyl-6-{2-[3-(2,4-dichloro-phenyl)-isoxazol-5-yl]-2-oxo-ethylsulfanyl}-5-methyl-1H-pyrimidine-2,4-dione], the IC50 was over 30 µM.
`Cc1c(SCc2ccccc2-c2ccccc2)[nH]c(=O)n(Cc2ccccc2)c1=O` [Example 33u, 3-Benzyl-6-(biphenyl-2-ylmethylsulfanyl)-5-methyl-1 H-pyrimidine-2,4-dione]: the IC50 was over 100 µM.
Take `COc1ccc(C(=O)CSc2[nH]c(=O)n(Cc3ccccc3)c(=O)c2C)cc1` [Example 33v, 3-Benzyl-6-[2-(4-methoxy-phenyl)-2-oxo-ethylsulfanyl]-5-methyl-1H-pyrimidine-2,4-dione]: the half-maximal inhibitory concentration (IC50) is 18 µM.

Still in this experiment, the particulars now being: values in text, given as about; read-out: IC50 with MMP-13 catalytic domain.
In the case of `Cc1c(SCc2cc(-c3ccc(Cl)cc3)on2)[nH]c(=O)n(Cc2ccccc2)c1=O` [Example 6, 3-Benzyl-6-[5-(4-chloro-phenyl)-isoxazol-3-ylmethylsulfanyl]-5-methyl-1H-pyrimidine-2,4-dione], the IC50 is about 2.1 µM.
Same read-out and setting: under `COc1ccc(-c2cc(CSc3[nH]c(=O)n(Cc4ccccc4)c(=O)c3C)on2)cc1` [Example 7, 3-Benzyl-6-[3-(4-methoxy-phenyl)-isoxazol-5-ylmethylsulfanyl]-5-methyl-1H-pyrimidine-2,4-dione] stands about 0.44 µM; under `Cc1c(SCc2cc(-c3ccc(Cl)cc3)no2)[nH]c(=O)n(Cc2ccccc2)c1=O` [Example 20, 3-Benzyl-6-[3-(4-chloro-phenyl)-isoxazol-5-ylmethylsulfanyl]-5-methyl-1H-pyrimidine-2,4-dione], about 1.2 µM.
On the same count and under the same terms, under `COc1ccc2nc(Nc3[nH]c(=O)n(Cc4ccccc4)c(=O)c3C)sc2c1` [Example 29, 3-Benzyl-6-(6-methoxy-benzothiazol-2-ylamino)-5-methyl-1H-pyrimidine-2,4-dione] stands about 0.44 µM.

What is called IC50 is the midpoint of a concentration-inhibition curve.
